Measurements: PMC8596843, “Platinum Cyclooctadiene Complexes with Activity against Gram‐positive Bacteria” (Chemmedchem, 2021)
Like-named read-outs stand apart in the source and are kept apart here.

Tests used:
[1] = system: E. coli tolC (efflux pump deficient); assay: MIC against E. coli membrane mutants; type: cell-based, Escherichia coli
Method: (§1) Antibacterial minimum inhibitory concentration (MIC) assay
(§2) concentration. (in-house screening)
(§3) Bacto Laboratories 212322) at 37 °C overnight.
(§4) The resultant mid-log phase cultures were diluted
(§5) Gram-negative and Gram-positive bacteria, respectively.
(§6) final concentration range of 0.8 – 100 µM.
(§7) inhibitors as positive control. […]

[2] = system: E. coli lpxC (non‐efficient lipid A production mutant); assay: MIC against E. coli membrane mutants; type: cell-based, Escherichia coli
Method: as §1, §2, §3, §4, §5, §6, §7

[3] = system: Klebsiella pneumoniae ATCC 700603 (ESBL SHV‐18)
Method: (§8) All compounds submitted to CO‐ADD are initially screened against five bacterial strains (Staphylococcus aureus (MRSA), E. coli, Klebsiella pneumoniae, Pseudomonas aeruginosa, Acinetobacter baumannii) and two fungal strains (Candida albicans, Cryptococcus neoformans) at a single concentration (32 μg/mL or 20 μM) performed as a high‐throughput primary screening.[[11], [17a]] Any compounds that show significant growth inhibition against any of the tested strains at this step are then evaluated in a dose‐response assay against these same strains. […]
(§9) Smiles: C1C=CCCC(=CC1)C1=CCCC=CCC1.C[Pt]C.C[Pt]C […]
(§10) ATCC strains were sourced from the American Type Culture Collection and NRS strains from NARSA (Network on Antimicrobial Resistance in Staphylococcus aureus) via BEI Resources (www.beiresources.org), with clinical MSSA and MRSA isolates from Prof Graeme Nimmo, Queensland […]
(§11) Health Central Pathology. […]
as §1
(§12) Compound Assay Plate Preparation: Compounds were dissolved in DMSO at 10mM (CO-ADD screening) or 4 mM (follow up screening) and were plated in a 2-fold dose response from 20 to 0.156 µM or 200 to 0.006 µM respectively, with a maximum of 0.5% or 1% DMSO, final in the assay […]
(§13) plated in a 2-fold dose response from 200 to 0.006 µM, with a maximum of 1 % DMSO, final in the assay concentration. (in-house screening)
(§14) For all the bacterial assays, each strain was cultured in Cation-adjusted Mueller Hinton broth (CAMHB; Bacto Laboratories 212322) at 37 °C overnight. A sample of each culture was then diluted 40-fold in fresh CAMHB and incubated at 37 °C for 1.5–3 h. The resultant mid-log phase cultures were diluted with CAMHB (CFU mL−1 measured by OD600), then added to each well of the compound-containing plates (384-well non-binding surface (NBS) plates; Corning CLS3640), giving a cell density of 5 × 10^5 CFU mL−1 and a total volume of 50 μL. Plates were covered and incubated at 37 °C for 18 h without shaking. Inhibition of bacterial growth was determined measuring absorbance at 600 nm (OD600), using media only as negative control and bacteria without inhibitors as positive control. MIC values were determined as the lowest concentration at which the growth was inhibited at ≥80%. Colistin sulfate (Sigma C4461) and vancomycin HCl (Sigma 861987) were used as internal controls on each plate for Gram-negative and Gram-positive bacteria, respectively. […]

[4] = system: Pseudomonas aeruginosa ATCC 27853; assay: Antibacterial MIC assay; type: cell-based; conditions: CO‐ADD screening
Method: as §8, §9, §10, §11, §1, §12, §13, §14

[5] = system: Escherichia coli ATCC 25922; assay: Antibacterial MIC assay; type: cell-based; conditions: CO‐ADD screening
Method: as §8, §9, §10, §11, §1, §12, §13, §14

[6] = system: Acinetobacter baumannii ATCC 19606; assay: Antibacterial MIC assay; type: cell-based; conditions: CO‐ADD screening
Method: as §8, §9, §10, §11, §1, §12, §13, §14

[7] = system: E. faecium ATCC 51559 MDR, VRE; assay: MIC in the presence of human serum (serum reversal); type: cell-based, Enterococcus faecium; conditions: 10% serum
Text: (§15) To obtain some initial insight into the apparent disparity between in vitro and in vivo results, we repeated the MIC experiments against four selected Gram‐positive strains in the presence of 10 % or 50 % human serum (Table S3). Pt1 and Pt2 maintained some antibacterial activity against B. subtilis in the presence of 10 % serum, but a complete loss of activity was observed against MRSA and GISA (50 % serum), and VRE (10 % serum). […] Systemic administration is therefore unlikely to be a suitable administration route for this class of compounds unless an alternative formulation that can prevent serum binding (e. g. by lipid or nanoparticle encapsulation) can be found. […] Further in vivo studies should therefore focus on more suitable disease models. […]
as §1, §2, §3, §4, §5, §6, §7

[8] = system: HEK-293 ATCC CRL-1573 human embryonic kidney cells; type: cell-based
Method: As part of the CO‐ADD screening, all compounds that show any activity against a microbial strain are evaluated for their cytotoxicity against human embryonic kidney cells (HEK‐293) and for haemolysis against human red blood cells. None of the compounds tested for cytotoxicity (Pt1‐9 and Pd1) caused any significant cell death up to concentrations of 100 μM. […] We have also observed higher IC50 values for the methylated complexes Pt3 and Pt4 against HeLa cells in previous work.[16] […]
(§16) inhibitors as positive control.
(§17) Tamoxifen (Sigma T5648) was used
(§18) as internal control on each plate.
in a Neubauer haemocytometer. […]

[9] = system: Staphylococcus aureus ATCC 43300 (MRSA); assay: microbe, parasite or virus in culture; type: cell-based; conditions: CO‐ADD screening
Method: as §8, §9, §10, §11, §1, §12, §13, §14

S. aureus NRS 17 GISA = assay: MIC in the presence of human serum (serum reversal); type: cell-based, Staphylococcus aureus; conditions: 50% serum
Text: as §15, §1, §2, §3, §4, §5, §6, §7

[10] = system: S. aureus ATCC 43300 MRSA; assay: as above; type: cell-based, Staphylococcus aureus; conditions: 50% serum
Text: as §15, §1, §2, §3, §4, §5, §6, §7

[11] = system: B. subtilis ATCC 6051 type strain; assay: as above; type: cell-based, Bacillus subtilis; conditions: 10% serum
Text: as §15, §1, §2, §3, §4, §5, §6, §7

[12] = system: Cryptococcus neoformans H99 ATCC 208821; assay: Antifungal MIC (CO-ADD screening); type: cell-based
Method: (§19) InChIKey: PHIWIZAHOBWKFJ-HPCBIOCFSA-N
(§20) Health Central Pathology. Candida albicans (ATCC 90028, NCCLS 11), Cryptococcus neoformans
as §1, §2, §3

[13] = system: Candida albicans ATCC 90028; assay: Antifungal MIC (CO-ADD screening); type: cell-based
Method: as §19, §20, §1, §2, §3

[14] = system: Staphylococcus aureus NRS 17, GISA; assay: Antibacterial MIC assay, Gram-positive panel; type: cell-based; conditions: Table S1 panel; n=2
Method: as §9, §10, §11, §1, §12, §13, §14

[15] = system: Enterococcus faecium ATCC 51559, MDR, VRE (VanA); assay: Antibacterial MIC assay, Gram-positive panel; type: cell-based; conditions: Table S1 panel; n=2
Method: as §9, §10, §11, §1, §12, §13, §14

human red blood cells = assay: Haemolysis assay; type: cell-based
Method: As part of the CO‐ADD screening, all compounds that show any activity against a microbial strain are evaluated for their cytotoxicity against human embryonic kidney cells (HEK‐293) and for haemolysis against human red blood cells. None of the compounds tested for cytotoxicity (Pt1‐9 and Pd1) caused any significant cell death up to concentrations of 100 μM. […] We have also observed higher IC50 values for the methylated complexes Pt3 and Pt4 against HeLa cells in previous work.[16]
as §4, §5, §6, §16, §17, §18
in a Neubauer haemocytometer.
incubated for 1 h at 37 °C, without shaking.
HC10 and HC50 (concentration at which 10%
for top, bottom and slope using Prism 8. […]

[16] = Antimicrobial activity of cisplatin in all assays of the paper; type: cell-based
Method: Following a protocol previously reported by us we used larvae of the greater wax moth Galleria mellonella as a model organism for in vivo toxicity and efficacy.[20] […] Briefly, stock solutions of Pt1 and Pt2 were prepared in DMSO and diluted to final concentrations of 0.4 mM, 100 μM, 10 μM and 1 μM. Due to solubility limitations higher concentrations could not be evaluated. For each concentration five larvae were injected with 10 μL and monitored for 96 hours for survival and health using the G. mellonella Health Index Scoring System.[22]

Colistin [reference compound]
MIC E. coli TolC ([1]; Table S2, colistin control): 0.03 µg/mL
MIC E. coli lpxC ([2]; Table S2, colistin control): 0.03 µg/mL
MIC Kp ([3]; CO‐ADD screening, control antibiotic): 0.25 µg/mL
MIC Pa ([4]; control antibiotic): 0.25 µg/mL
MIC Ec ([5]; control antibiotic): 0.125 µg/mL
MIC Ab ([6]; control antibiotic): 0.25 µg/mL

CCC1=CCCC=CCC1.[CH3][Pt][C](F)(F)C(F)(F)C(F)(F)C(F)(F)C(F)(F)C(F)(F)C(F)(F)C(F)(F)F [Pt9]
MIC E. coli TolC ([1]; Table S2): > 200 µM
MIC E. coli lpxC ([2]; Table S2): > 200 µM
MIC in the presence of human serum [7]: > 200 µM
CC50 [8]: > 100 µM
MIC Sa [9]: >20 µM
MIC in the presence of human serum (S. aureus NRS 17 GISA): > 200 µM
MIC in the presence of human serum [10]: > 200 µM
MIC in the presence of human serum [11]: > 200 µM
MIC Kp [3]: >20 µM
MIC Pa [4]: >20 µM
MIC Ec [5]: >20 µM
MIC Ab [6]: >20 µM
MIC Cn [12]: 1.25 µM
MIC Ca [13]: >20 µM
MIC [14]: 100 µM
MIC [15]: 100 µM
Haemolysis HC10 (human red blood cells; concentration inducing 10 % haemolysis): >100 µM
Haemolysis HC50 (human red blood cells; concentration inducing 50 % haemolysis): >100 µM

N.N.[Cl][Pt][Cl] [cisplatin]
antimicrobial activity [16]: no antimicrobial activity
